Experimental findings from ChEMBL document CHEMBL1133164, “N-[[(5-methyl-3-phenylisoxazol-4-yl)-phenyl]sulfonyl]propanamide, sodium salt, parecoxib sodium: A potent and selective inhibitor of COX-2 for parenteral administration” (J Med Chem, 2000) are described below.

The species entered for series [1] is Rattus norvegicus. Put plainly: Compound was tested for the antiinflammatory activity in rat adjuvant arthritis model. It counts as functional.
The species named for series [2] is Rattus norvegicus. The series can be described thus: Compound was tested for the antiinflammatory activity in carrageenan air pouch model of inflammation. It counts as functional.
Series [3] deals with Prostaglandin G/H synthase 1 (Homo sapiens, UniProt P23219). Put plainly: Compound was tested for its inhibitory activity against recombinant human Prostaglandin G/H synthase 1.
Sequence of Prostaglandin G/H synthase 1 (P23219 whole entry): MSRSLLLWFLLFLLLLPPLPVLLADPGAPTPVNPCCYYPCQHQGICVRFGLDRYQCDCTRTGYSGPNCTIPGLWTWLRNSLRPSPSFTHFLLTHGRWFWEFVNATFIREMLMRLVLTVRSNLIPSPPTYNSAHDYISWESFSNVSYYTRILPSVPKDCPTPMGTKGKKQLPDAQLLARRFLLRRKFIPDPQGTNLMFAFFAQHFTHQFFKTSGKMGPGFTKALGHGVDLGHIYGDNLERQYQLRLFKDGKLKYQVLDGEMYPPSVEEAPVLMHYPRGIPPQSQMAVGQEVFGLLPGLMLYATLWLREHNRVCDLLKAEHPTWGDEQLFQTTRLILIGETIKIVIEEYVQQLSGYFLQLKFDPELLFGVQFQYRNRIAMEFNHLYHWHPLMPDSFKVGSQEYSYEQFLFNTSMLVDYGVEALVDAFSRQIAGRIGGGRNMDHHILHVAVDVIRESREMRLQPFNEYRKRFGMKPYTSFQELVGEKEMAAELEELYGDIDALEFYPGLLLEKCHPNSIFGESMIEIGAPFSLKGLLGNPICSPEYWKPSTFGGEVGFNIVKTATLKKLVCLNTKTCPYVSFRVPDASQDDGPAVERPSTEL
Series [4] deals with T1, Prostaglandin G/H synthase 2 (Homo sapiens, UniProt P35354).
T1 sequence (P35354 whole entry): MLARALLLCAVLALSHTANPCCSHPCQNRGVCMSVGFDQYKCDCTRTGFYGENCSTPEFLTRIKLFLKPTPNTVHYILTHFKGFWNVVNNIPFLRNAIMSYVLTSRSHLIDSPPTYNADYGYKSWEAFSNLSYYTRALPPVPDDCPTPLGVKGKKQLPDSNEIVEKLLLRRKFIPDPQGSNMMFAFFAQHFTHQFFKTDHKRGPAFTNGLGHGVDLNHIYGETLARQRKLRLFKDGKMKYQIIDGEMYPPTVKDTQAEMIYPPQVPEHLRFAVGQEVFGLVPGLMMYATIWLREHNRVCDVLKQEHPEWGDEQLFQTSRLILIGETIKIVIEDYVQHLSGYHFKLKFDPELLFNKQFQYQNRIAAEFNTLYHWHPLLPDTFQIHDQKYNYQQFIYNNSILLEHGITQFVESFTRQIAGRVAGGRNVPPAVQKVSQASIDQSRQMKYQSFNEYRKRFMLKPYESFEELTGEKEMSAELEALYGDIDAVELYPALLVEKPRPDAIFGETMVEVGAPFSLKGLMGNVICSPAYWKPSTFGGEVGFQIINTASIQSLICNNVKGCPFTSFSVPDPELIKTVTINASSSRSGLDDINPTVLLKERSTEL
Description: Compound was tested for its inhibitory activity against recombinant human Prostaglandin G/H synthase 2

A short description of series [5]: In vivo mean elimination half life in the cynomolgus monkeys by intravenous administration of the compound. It counts as ADME, organism-based, Macaca fascicularis. The note with it: cynomolgus monkey.
The species entered for series [6] is Rattus norvegicus. The series can be described thus: Compound was tested for the chronic antiinflammatory activity in rat adjuvant arthritis model. It counts as functional.
Series [7] is described as follows: In vivo mean elimination half life in the female dogs by intravenous administration of the compound. It counts as ADME, organism-based, Canis lupus familiaris. The note with it: dog.
In series [8] the test system is Rattus norvegicus. The series can be described thus: Compound was tested for complete blockade of carrageenan induced hyperalgesia within 1 hr after iv administration. The series is classed as functional.
For series [9], the system named is Rattus norvegicus. The series can be described thus: Compound was tested for the percentage inhibition at 0.3 mg/kg in carrageenan air pouch assay. The series is classed as functional.
Series [10] in a line: In vivo mean elimination half life in the male rat by intravenous administration of the compound. It counts as ADME, organism-based.

A word on the ED50: it is the dose that gives a 50% effect, or the effect in half of the subjects. The IC50 is the concentration that inhibits the measured activity by half. One may read the half-life as how long it takes for the measured level to halve. One may read the inhibition in vivo as the share of the control response that was lost under treatment.

In the case of `Cc1onc(-c2ccccc2)c1-c1ccc(S(N)(=O)=O)cc1` [VALDECOXIB], the ED50 in the series filed under Rattus norvegicus [1] amounted to 0.08 mg/kg.

For `CC(=O)[N-]S(=O)(=O)c1ccc(-c2c(-c3ccccc3)noc2C)cc1.[Na+]`, it took a dose of 0.5 mg/kg to reach the 50% effect level in the series listed under Rattus norvegicus [2] (ED50). Moreover, the IC50 came to 100 µM in series [3] and 20 µM in series [4].

As for `CCC(=O)[N-]S(=O)(=O)c1ccc(-c2c(-c3ccccc3)noc2C)cc1.[Na+]` [PARECOXIB SODIUM], the figures for the half-life in series [5], in series [7] and in series [10] were 72.6 min, 33.2 min and 8.1 min, respectively. In addition, the ED50 in the series listed under Rattus norvegicus [6] is 0.08 mg/kg; in the series with Rattus norvegicus [8] it was 5 mg/kg. For the same compound, in the series with Rattus norvegicus [9], 0.3 mg/kg produced 98% inhibition in vivo.
